Source: the OligoGym collection
Several values for one entry are separate records, joined by “and”; a condition that tells them apart may be missing. Equal entries are not always repeated. After the bases stand the sugars from the 5' end (letter, count) and the backbone: PS all phosphorothioate, else s phosphorothioate and o phosphodiester by linkage. Methylation of C is not given here. e = 2'-O-(2-methoxyethyl) (MOE); k = constrained ethyl (cEt); d = 2'-deoxy (DNA)

Target: IRF4
Settings: ASO

AGTCAGTGTCAATACT (sugars k3 d10 k3, PS)
target mRNA inhibition (SK-MEL-28, 4 µM): 47%

TTGCAAGAGAACAGCC (sugars k3 d10 k3, PS)
target mRNA inhibition (SK-MEL-28, 4 µM): 39%

ACTGCTTGAGGTTTTC (sugars e1 k2 d9 k2 e2, PS)
target mRNA inhibition (MM.1R, 1 µM): 46%

ACTGCTTGAGGTTTTC (sugars k3 d9 k3 e1, PS)
target mRNA inhibition (MM.1R, 1 µM): 52%

AGGAACAATCCTGTAC (sugars k3 d10 k3, PS)
target mRNA inhibition (SK-MEL-28, 4 µM): 16%

GGACACCACCTCGAGG (sugars k3 d10 k3, PS)
target mRNA inhibition (MM.1R, 1 µM): 1%

GCCGAAGTCAACAGGA (sugars k3 d10 k3, PS)
target mRNA inhibition (MM.1R, 1 µM): -17%

TGTCACTATGCCTGAA (sugars k3 d10 k3, PS)
target mRNA inhibition (SK-MEL-28, 4 µM): 27%

AAATATCGCCCATGAG (sugars k3 d10 k3, PS)
target mRNA inhibition (SK-MEL-28, 4 µM): 39%

CCACATTAGCAATTAG (sugars k3 d10 k3, PS)
target mRNA inhibition (SK-MEL-28, 4 µM): 19%

CAAGCAGTGATGTCAG (sugars kkdddddddddkdkdk, PS)
target mRNA inhibition (MM.1R, 1 µM): 46% and 49%

TACATCACTGCAGTTC (sugars k3 d10 k3, PS)
target mRNA inhibition (SK-MEL-28, 4 µM): 68%

CCCAAGCCTTGAAGAG (sugars k4 d8 k4, PS)
target mRNA inhibition (SK-MEL-28, 4 µM): 22%

GGTACGGGATTTCCGG (sugars k3 d10 k3, PS)
target mRNA inhibition (MM.1R, 1 µM): 12%

TTATGTTAGCCAATTC (sugars kkdddddddddkdkdk, PS)
target mRNA inhibition (MM.1R, 1 µM): 17% and 26%

AGCAACTAGCAGGGCA (sugars k3 d10 k3, PS)
target mRNA inhibition (MM.1R, 1 µM): -2%

AGAGGCGACTGCTGAA (sugars k3 d10 k3, PS)
target mRNA inhibition (MM.1R, 1 µM): -19%

GAAATATACCAGCTCA (sugars k3 d10 k3, PS)
target mRNA inhibition (SK-MEL-28, 4 µM): 61%

GCAAGTGTCTAAAGTC (sugars k3 d10 k3, PS)
target mRNA inhibition (MM.1R, 1 µM): 49% and 53%

CGGTTAGCTCATCCCG (sugars k3 d10 k3, PS)
target mRNA inhibition (MM.1R, 1 µM): 5%

AGCCAAAGTGACTTAA (sugars k3 d10 k3, PS)
target mRNA inhibition (SK-MEL-28, 4 µM): 58%

CTGTATAGTTCTCAAC (sugars k3 d10 k3, PS)
target mRNA inhibition (SK-MEL-28, 4 µM): 52%

CAACAGTTCAAGTATT (sugars k3 d10 k3, PS)
target mRNA inhibition (SK-MEL-28, 4 µM): 35%

TGCTTGAGGTTTTCCT (sugars kddddddddddkekek, PS)
target mRNA inhibition (MM.1R, 1 µM): 36%

ACCCAAATGTGGAGCT (sugars k3 d10 k3, PS)
target mRNA inhibition (MM.1R, 1 µM): 3%

TTGTTAACAATGTATC (sugars k3 d10 k3, PS)
target mRNA inhibition (SK-MEL-28, 4 µM): 47%

GCTTACAAAAACTTGG (sugars k3 d10 k3, PS)
target mRNA inhibition (SK-MEL-28, 4 µM): 26%

ATAACGAGGTGCCTTA (sugars k3 d10 k3, PS)
target mRNA inhibition (SK-MEL-28, 4 µM): 13%

GAGGTAAATCTTCACT (sugars k3 d10 k3, PS)
target mRNA inhibition (SK-MEL-28, 4 µM): 70%

ACCCATTTAATCTGTC (sugars k3 d10 k3, PS)
target mRNA inhibition (SK-MEL-28, 4 µM): 57%

CGTGGAAACGAGAACG (sugars k3 d10 k3, PS)
target mRNA inhibition (SK-MEL-28, 4 µM): 29%

GCAGCTTCTCAATGTT (sugars k3 d10 k3, PS)
target mRNA inhibition (SK-MEL-28, 4 µM): 43%

CTTGGTCAATTTTCAC (sugars k3 d10 k3, PS)
target mRNA inhibition (SK-MEL-28, 4 µM): 53%

AGCTAGCGCGCACTAA (sugars k3 d10 k3, PS)
target mRNA inhibition (MM.1R, 1 µM): -8%

GAGATATAAATAGCTG (sugars k3 d10 k3, PS)
target mRNA inhibition (SK-MEL-28, 4 µM): 51%

GTGTCTAAAGTCCCAT (sugars kkddddddddddkeke, PS)
target mRNA inhibition (MM.1R, 1 µM): 9% and 6%

ATTCATTTTATGGACC (sugars k3 d10 k3, PS)
target mRNA inhibition (SK-MEL-28, 4 µM): 42%

TAACAGATAACGAGGT (sugars k3 d10 k3, PS)
target mRNA inhibition (MM.1R, 1 µM): 12%

GCTAAACCTGGCACCA (sugars k3 d10 k3, PS)
target mRNA inhibition (MM.1R, 1 µM): 7%

GCACAGCCGTCCGCCT (sugars k3 d10 k3, PS)
target mRNA inhibition (SK-MEL-28, 4 µM): 16%

GACAGAGAGTCCGACG (sugars k3 d10 k3, PS)
target mRNA inhibition (SK-MEL-28, 4 µM): -1%

ATGGAACAGTAACTTG (sugars k3 d10 k3, PS)
target mRNA inhibition (MM.1R, 1 µM): 3%

CTATAGTGTTCCAGGA (sugars kdddddddddkekeke, PS)
target mRNA inhibition (MM.1R, 1 µM): 12%

TCCTGAATTTACAGCA (sugars k3 d10 k3, PS)
target mRNA inhibition (SK-MEL-28, 4 µM): 48%

AGTCACGCAATGGCAA (sugars k3 d10 k3, PS)
target mRNA inhibition (SK-MEL-28, 4 µM): 50%

GCTCAATAATCTCCCA (sugars k3 d10 k3, PS)
target mRNA inhibition (MM.1R, 1 µM): 0%

CTAATCTACAACAAAT (sugars k3 d10 k3, PS)
target mRNA inhibition (SK-MEL-28, 4 µM): 23%

CGGAACTTTCCTTTAA (sugars k3 d10 k3, PS)
target mRNA inhibition (SK-MEL-28, 4 µM): 37%

GCAAGTGGAGGTCTTT (sugars k3 d10 k3, PS)
target mRNA inhibition (SK-MEL-28, 4 µM): 74% and 79%

GCATAAAAGGTTCCTG (sugars k4 d8 k4, PS)
target mRNA inhibition (MM.1R, 0.074 µM): 0% | target mRNA inhibition (MM.1R, 0.222 µM): -3% | target mRNA inhibition (MM.1R, 0.666 µM): -7% | target mRNA inhibition (MM.1R, 2 µM): 3% | target mRNA inhibition (SK-MEL-28, 0.185 µM): 4% and 9% and 17% | target mRNA inhibition (SK-MEL-28, 4 µM): 47% | target mRNA inhibition (SK-MEL-28, 5 µM): 34% and 37% and 50% | target mRNA inhibition (SK-MEL-28, 15 µM): 75% and 72% and 89%
